Tested on: CBF response evoked by electrical stimulation of the left ophthalmic branch of the trigeminal ganglion
Test: Inhibition of cerebral blood flow (CBF) increase evoked by electrical stimulation of the trigeminal ganglion in anesthetized rats
Format: in vivo, Male Wistar rats
Details: rat, i.v.; for % Inhibition of the CBF response: mean±S.E. of 4/6 rats, versus vehicle
Protocol: Male Wistar rats (250-350 g) were anesthetized with sodium pentobarbital (50 mg/kg i.p.) dissolved in saline. The trachea and left femoral artery were cannulated for artificial ventilation (55 strokes/min) and for measurement of mean blood pressure (MBP) respectively. The femoral vein was cannulated for the intravenous administration of test agents. Body temperature was maintained at 37-38° C. by automatic control of a heating pad. Animals were placed in a stereotaxic frame and a longitudinal incision was made in the scalp. A burr hole was drilled in the skull and a stainless steel bipolar electrode (Plastic One MS 306) was lowered into left ophthalmic branch of the trigeminal ganglion (3.8 mm […] to bregma, 2.5 mm lateral from the midline and 9.5 mm below the dural surface) and secured with dental cement. Correct placement of the electrode was confirmed by a brief electrical stimulation, which cause movement of the jaw due to activation of the trigeminal fiber. Following removal of the brain, the correct position of the electrode into the fiber, was visually checked at the end of each experiment. A second hole was drilled ipsilateral of the electrode (1.5 mm rostral to bregma, and 1.5 mm lateral from the sagittal suture) and a needle probe (tip diameter 0.8 mm) of a laser doppler flowmeter was fixed pointing with its tip onto a branch of the middle cerebral artery (MCA) and Cerebral Blood Flow (CBF) change recorded on-line by the PeriFlux 4001 Laser Doppler system. Artefacts of the laser Doppler reading during electrical stimulation of the trigeminal ganglion due to muscular movements were prevented by a bolus of i.v. injection of the neuromuscular blocker pancuronium bromide (0.6 mg/kg i.v.). Anesthesia and neuromuscular blockade were maintained all over the experiment with an infusion of sodium pentobarbital and pancuronium (12.5 mg/kg/h+2.4 mg/kg/h, respectively). At the end of the surgery, a pause of thirty minutes was taken in order to stabilize the measured parameters. Rest CBF was increased by electrical stimulation with rectangular pulse of 0.5 msec length, 1-10 Hz, 0.5-1 mA for periods of 30 seconds. After two averaged pre-drug stimulations, vehicle or drugs were administered. The α-aminoamide compounds NW-1015, NW-1029, NW-1039, representative of the invention, and the comparative 2-(4-(2-fluorobenzyloxy)benzylamino)-2-methyl-propanamide (internal code and hereinafter NW1050), 2-(4-(4-fluorobenzyloxy)benzylamino)-2-methyl-propanamide (internal code and hereinafter NW1055, also one of the compounds tested in WO99/26614), 4-(4′-fluorophenoxy)benzaldheyde semicarbazone (hereinafter Co102862, tested in WO00/61188) and vehicle, were administered intravenously after second basal stimulation registering the responses to evoked flow by electrical stimulation at 5, 15, 30 and 60 min after treatment. NW-1015, was administered at the doses of 1, 2 and 5 mg/kg; NW-1029 was administered at the doses of 5 and 10 mg/kg and NW-1039 at the doses of 2 and 5 mg/kg whereas NW-1050, NW-1055 and Co102862 were all administered at the dose of 20 mg/kg. The responses obtained after drug administration were compared to the vehicle group, and were reported as a percentage of the inhibition of the evoked CBF. Data were compared by analysis of covariance (ANCOVA) followed by Dunnet's test. The antimigraine effect of the tested compounds was observed and measured as the percentage of the inhibition after i.v. administration of the above mentioned representative compounds of the CBF evoked in control condition. The data reported in table 1 below show the inhibitory activity of the tested compounds on the CBF response evoked by electrical stimulation of the left ophthalmic branch of the trigeminal ganglion. Results (mean±S.E. of 4/6 rats per group) are expressed as percent of the inhibition on evoked CBF response versus the vehicle.

[1] = dose 20 mg/kg, 5 min after administration
[2] = dose 20 mg/kg, 15 min after administration
[3] = dose 20 mg/kg, 30 min after administration
[4] = dose 20 mg/kg, 60 min after administration
[5] = at the doses tested (1-10 mg/kg), up to 60 min
[6] = dose 5 mg/kg, 5 min after administration
[7] = dose 5 mg/kg, 15 min after administration
[8] = dose 5 mg/kg, 30 min after administration
[9] = dose 5 mg/kg, 60 min after administration
[10] = dose 2 mg/kg, 5 min after administration
[11] = dose 2 mg/kg, 15 min after administration
[12] = dose 2 mg/kg, 30 min after administration
[13] = dose 2 mg/kg, 60 min after administration

## CC(C)(NCc1ccc(OCc2ccc(F)cc2)cc1)C(N)=O [NW-1055, 2-(4-(4-fluorobenzyloxy)benzylamino)-2-methyl-propanamide, reference compound]
20 mg/kg
  Effect on the evoked CBF compared to the vehicle group (in words): light inhibition of the evoked CBF, which however did not reach a statistically significant difference
[1]
  % Inhibition of the CBF response: 6.9 ± 4.2%
[2]
  % Inhibition of the CBF response: 3.4 ± 3.2%
[3]
  % Inhibition of the CBF response: 11.3 ± 2.0%
[4]
  % Inhibition of the CBF response: 14.0 ± 4.0%

## C[C@H](NCc1ccc(OCc2ccccc2F)cc1)C(N)=O [NW-1029, (S)-(+)-2-[4-(2-fluorobenzyloxy)benzylamino]-propanamide]
[5]
  Effect on the evoked CBF compared to the vehicle group (in words): reduced the evoked CBF compared to the vehicle up to 60 min post administration
[6]
  % Inhibition of the CBF response: 15.5 ± 3.7%
[7]
  % Inhibition of the CBF response: 20.8 ± 3.5%
[8]
  % Inhibition of the CBF response: 27.8 ± 3.9 %
[9]
  % Inhibition of the CBF response: 30.6 ± 2.8%
Dose 10 mg/kg, 5 min after administration
  % Inhibition of the CBF response: 23.9 ± 3.9%
Dose 10 mg/kg, 15 min after administration
  % Inhibition of the CBF response: 34.9 ± 8.2 %
Dose 10 mg/kg, 30 min after administration
  % Inhibition of the CBF response: 35.3 ± 2.6 %
Dose 10 mg/kg, 60 min after administration
  % Inhibition of the CBF response: 35.7 ± 3.9 %

## C[C@H](NCc1ccc(OCc2cccc(Cl)c2)cc1)C(N)=O [NW-1039, (S)-(+)-2-[4-(3-chlorobenzyloxy)benzylamino]-propanamide]
[5]
  Effect on the evoked CBF compared to the vehicle group (in words): produced a decrease of the evoked CBF response compared to the vehicle group
[10]
  % Inhibition of the CBF response: 24.2 ± 6.2%
[11]
  % Inhibition of the CBF response: 31.3 ± 6.2 %
[12]
  % Inhibition of the CBF response: 32.1 ± 8.1 %
[13]
  % Inhibition of the CBF response: 36.2 ± 9.1 %
[6]
  % Inhibition of the CBF response: 45.0 ± 6.3 %
[7]
  % Inhibition of the CBF response: 41.7 ± 1.8 %
[8]
  % Inhibition of the CBF response: 38.1 ± 2.6 %
[9]
  % Inhibition of the CBF response: 20.9 ± 9.4%

## C[C@H](NCc1ccc(OCc2cccc(F)c2)cc1)C(N)=O [NW-1015, (S)-(+)-2-[4-(3-fluorobenzyloxy)benzylamino]-propanamide]
[5]
  Effect on the evoked CBF compared to the vehicle group (in words): long lasting i.v. activity reducing the evoked CBF up to 60 min after administration
Dose 1 mg/kg, 5 min after administration
  % Inhibition of the CBF response: 25.6 ± 2.9%
Dose 1 mg/kg, 15 min after administration
  % Inhibition of the CBF response: 25.8 ± 2.7%
Dose 1 mg/kg, 30 min after administration
  % Inhibition of the CBF response: 36.6 ± 4.7 %
Dose 1 mg/kg, 60 min after administration
  % Inhibition of the CBF response: 15.7 ± 9.8%
[10]
  % Inhibition of the CBF response: 15.0 ± 1.8 %
[11]
  % Inhibition of the CBF response: 22.0 ± 3.8 %
[12]
  % Inhibition of the CBF response: 20.6 ± 6.2 %
[13]
  % Inhibition of the CBF response: 4.0 ± 6.3%
[6]
  % Inhibition of the CBF response: 25.2 ± 2.6%
[7]
  % Inhibition of the CBF response: 35.5 ± 6.5 %
[8]
  % Inhibition of the CBF response: 34.7 ± 1.9 %
[9]
  % Inhibition of the CBF response: 27.1 ± 3.6%

## CC(C)(NCc1ccc(OCc2ccccc2F)cc1)C(N)=O [NW-1050, 2-(4-(2-fluorobenzyloxy)benzylamino)-2-methyl-propanamide, reference compound]
20 mg/kg
  Effect on the evoked CBF compared to the vehicle group (in words): completely inactive
[1]
  % Inhibition of the CBF response: 1.2 ± 0.3%
[2]
  % Inhibition of the CBF response: 1.8 ± 0.6%
[3]
  % Inhibition of the CBF response: 1.7 ± 0.8%
[4]
  % Inhibition of the CBF response: 0.9 ± 0.1%

## NC(=O)NN=Cc1ccc(Oc2ccc(F)cc2)cc1 [Co102862, 4-(4′-fluorophenoxy)benzaldheyde semicarbazone, reference compound]
20 mg/kg
  Effect on the evoked CBF compared to the vehicle group (in words): completely inactive
[1]
  % Inhibition of the CBF response: 0.9 ± 0.1%
[2]
  % Inhibition of the CBF response: 1.1 ± 0.3%
[3]
  % Inhibition of the CBF response: 1.2 ± 0.2%
[4]
  % Inhibition of the CBF response: 0.7 ± 0.1%
